Tested on: AKT protein phosphorylated on serine 473 (P-AKT-S473) in PC3 human prostate carcinoma cells
Assay: pAKT expression in PC3 human prostate carcinoma cells, MSD Multi-spot Biomarker detection (Test A)
Format: cell-based
Settings: 1 to 2 h incubation, P-AKT-S473, absolute IC50, mean of two independent experiments
Procedure: The inhibitory activity of the molecules on AKT phosphorylation is measured using the MSD Multi-spot Biomarker detection technique from Meso Scale Discovery also described below. […] The primary antibody specific for […]) is coated on to an electrode in each well of the 96-well plates of the MSD kit: after the addition of a protein lysate to each well, the signal is visualized by adding a secondary detection antibody labeled with an electrochemiluminescent compound. The procedure followed is the one described in the kit. […] On day 2, the cells are incubated in the presence or absence of the test products for 1 to 2 h at 37° C. in the presence of 5% CO2. The molecules, diluted in dimethyl sulfoxide (DMSO Sigma #D2650), are added from a 20-times concentrated stock solution, the final percentage of DMSO being 0.1%. The molecules are tested either at a single concentration of less than or equal to 10 μM, or at increasing concentrations in a range that can extend from less than 1 nM to 10 μM. After this incubation, the cells are lysed for the preparation of the proteins. […] At this stage, the plates containing the lysates can be frozen at -20° C. or at -80° C. The wells of the 96 well plates of the MSD kit are saturated for 1 h at ambient temperature with the blocking solution of the MSD kit. Four washes are carried out with 150 μl of Tris Wash Buffer of the MSD kit. The lysates previously prepared are transferred into the 96-well multi-spot plates of the MSD kit and incubated for 1 h at ambient temperature, with shaking. Four washes are carried out with 150 μl of Tris Wash Buffer of the MSD kit. 25 μl of the MSD sulfo-tag detection antibody solution are added to the wells and incubated for 1 h at ambient temperature, with shaking. Four washes are carried out with 150 μl of Tris Wash Buffer of the MSD kit. 150 μl of Read Buffer of the MSD kit are added to the wells and the plates are read immediately on the S12400 instrument from Meso Scale Discovery. The instrument measures a signal for each well. Wells without cells and containing the lysis buffer serve to determine the background noise that will be subtracted from all the measurements (min). The wells containing cells in the absence of product and in the presence of 0.1% DMSO are considered to be the 100% signal (max). The percentage inhibition is calculated for each concentration of product tested, according to the following formula: (1-((test-min)/(max-min)))×100. […] Two independent experiments make it possible to calculate the mean of the IC50 values.

SMILES	IC50 (PC3 cells)	IC50 (Homo sapiens, PC-3, PC3 cells)
O=C(Cc1nc(N2CCOCC2)cc(=O)[nH]1)N1c2ccccc2CC1C1CC1 (single isomer, unassigned; (-)) [Example 35d, (−)-2-[2-(2-cyclopropyl-2,3-dihydroindol-1-yl)-2-oxoethyl]-6-morpholin-4-yl-3H-pyrimidin-4-one]	5 nM	–
CC1Cc2c(Br)cccc2N1C(=O)Cc1nc(N2CCOCC2)cc(=O)[nH]1 (single isomer, unassigned; (-)) [Example 26c, (−)-2-{2-[4-bromo-2-methyl-2,3-dihydro-1H-indol-1-yl]-2-oxoethyl}-6-(morpholin-4-yl)pyrimidin-4(3H)-one]	3 nM	–
CC1Cc2cc(F)c(F)cc2N1C(=O)Cc1nc(N2CCOCC2)cc(=O)[nH]1 (stereo not drawn) [Example 21c, 2-{2-[(+)-5,6-difluoro-2-methyl-2,3-dihydro-1H-indol-1-yl]-2-oxoethyl}-6-(morpholin-4-yl)pyrimidin-4(3H)-one]	17 nM	–
O=C(Cc1nc(N2CCOC(CO)C2)cc(=O)[nH]1)N1CCc2c(F)cccc21 (racemic) [Example 27b, (±)-2-[2-(4-fluoro-2,3-dihydroindol-1-yl)-2-oxoethyl]-6-(2-hydroxymethylmorpholin-4-yl)-3H-pyrimidin-4-one]	–	1330 nM
O=C(Cc1nc(-c2ccnc(F)c2)cc(=O)[nH]1)N1CCc2c(F)cccc21 [Example 24b, 2-[2-(4-Fluoro-2,3-dihydroindol-1-yl)-2-oxoethyl]-6-(2-fluoropyridin-4-yl)-3H-pyrimidin-4-one]	–	2860 nM
CCC1Cc2ccccc2N1C(=O)Cc1nc(N2CCOCC2)cc(=O)[nH]1 (single isomer, unassigned; (-)) [Example 43c, (−)-2-[2-(2-ethyl-2,3-dihydroindol-1-yl)-2-oxoethyl]-6-morpholin-4-yl-3H-pyrimidin-4-one]	14 nM	–
C[C@H]1Cc2ccccc2N1C(=O)Cc1nc(N2CCOCC2)cc(=O)[nH]1 [Example 19b, (+)-2-[2-(2-methyl-2,3-dihydroindol-1-yl)-2-oxoethyl]-6-morpholin(D4)-4-yl-3H-pyrimidin-4-one]	16 nM	–
O=C(Cc1nc(N2CCOCC2)c(F)c(=O)[nH]1)N1CCc2c(F)cccc21 [Example 1a, 5-fluoro-2-[2-(4-fluoro-2,3-dihydro-1H-indol-1-yl)-2-oxoethyl]-6-(morpholin-4-yl)pyrimidin-4(3H)-one]	–	22 nM
C[C@H]1Cc2ccccc2N1C(=O)Cc1nc(N2CCOCC2)c(Cl)c(=O)[nH]1 [Example 35a, 5-chloro-2-[2-((S)-2-methyl-2,3-dihydroindol-1-yl)-2-oxoethyl]-6-morpholin-4-yl-3H-pyrimidin-4-one]	–	140 nM
O=C(Cc1nc(N2CCOCC2)cc(=O)[nH]1)N1CCc2c(-c3cccnc3)cccc21 [Example 13d, 6-(morpholin-4-yl)-2-{2-oxo-2-[4-(pyridin-3-yl)-2,3-dihydro-1H-indol-1-yl]ethyl}pyrimidin-4(3H)-one]	–	53 nM
C[C@H]1Cc2ccccc2N1C(=O)Cc1nc(N2CCOC(CO)C2)cc(=O)[nH]1 (single isomer, unassigned; (+)) [Example 31b]	–	156 nM
O=C(Cc1nc(N2CCOCC2)cc(=O)[nH]1)N1c2ccccc2C2CCCC21 (stereo not shown) [Example 16d, 6-(morpholin-4-yl)-2-[2-oxo-2-(2,3,3a,8b-tetrahydrocyclopenta[b]indol-4(1H)-yl)ethyl]pyrimidin-4(3H)-one]	–	30 nM
CC1Cc2c(ccc(F)c2F)N1C(=S)Cc1nc(N2CCOCC2)c(F)c(=S)[nH]1 (stereo not drawn) [Example 9e, 2-[2-((+)-4,5-Difluoro-2-methyl-2,3-dihydroindol-1-yl)-2-thioxoethyl]-5-fluoro-6-morpholin-4-yl-3H-pyrimidine-4-thione]	–	1 nM
CC(F)(C(=O)N1CCc2c(F)cccc21)c1nc(N2CCOCC2)cc(=O)[nH]1 (single isomer, unassigned; (-)) [Example 44c, (−)-2-[2-fluoro-1-(4-fluoro-2,3-dihydro-1H-indol-1-yl)-1-oxopropan-2-yl]-6-(morpholin-4-yl)pyrimidin-4(3H)-one]	–	140 nM
Cn1c(CC(=O)N2CCc3c(Cl)cccc32)nc(N2CCOCC2)cc1=S [Example 7e, 1-(4-chloro-2,3-dihydroindol-1-yl)-2-(1-methyl-4-morpholin-4-yl-6-thioxo-1,6-dihydropyrimidin-2-yl)ethanone]	–	33 nM

Now from value to compound:

IC50 (PC3 cells)	IC50 (Homo sapiens, PC-3, PC3 cells)	SMILES
4 nM	–	CC1Cc2c(ccc(F)c2F)N1C(=O)Cc1nc(N2CCOCC2)cc(=O)[nH]1 (single isomer, unassigned; (+)) [Example 17c, (+)-2-{2-[4,5-difluoro-2-methyl-2,3-dihydro-1H-indol-1-yl]-2-oxoethyl}-6-(morpholin-4-yl)pyrimidin-4(3H)-one]
1 nM	–	CC1Cc2c(ccc(F)c2Cl)N1C(=O)Cc1nc(N2CCOCC2)cc(=O)[nH]1 (single isomer, unassigned; (-)) [Example 38c, (−)-2-{2-[4-chloro-5-fluoro-2-methyl-2,3-dihydro-1H-indol-1-yl]-2-oxoethyl}-6-(morpholin-4-yl)pyrimidin-4(3H)-one]
270 nM	–	CC1Cc2cc(F)c(F)cc2N1C(=O)Cc1nc(N2CCOCC2)c(F)c(=O)n1C (stereo not drawn) [Example 27a, 5-fluoro-2-[2-((−)-5,6-difluoro-2-methyl-2,3-dihydroindol-1-yl)-2-oxoethyl]-3-methyl-6-morpholin-4-yl-3H-pyrimidin-4-one]
476 nM	–	CC1Cc2c(Cl)cccc2N1C(=O)Cc1nc(N2CCOCC2)c(F)c(=O)n1C (stereo not drawn) [Example 28a, 5-fluoro-2-[2-((+)-4-chloro-2-methyl-2,3-dihydroindol-1-yl)-2-oxoethyl]-3-methyl-6-morpholin-4-yl-3H-pyrimidin-4-one]
–	107 nM	C[C@H]1Cc2ccccc2N1C(=O)Cc1nc(N2CCOCC2)c(F)c(=O)n1C [Example 8a, 5-fluoro-3-methyl-2-{2-[(2S)-2-methyl-2,3-dihydro-1H-indol-1-yl]-2-oxoethyl}-6-(morpholin-4-yl)pyrimidin-4(3H)-one]
77 nM	–	CC1Cc2ccc(F)cc2N1C(=O)Cc1nc(N2CCOCC2)c(F)c(=O)[nH]1 (stereo not drawn) [Example 33a, 5-Fluoro-2-[2-((+)-6-fluoro-2-methyl-2,3-dihydroindol-1-yl)-2-oxoethyl]-6-morpholin-4-yl-3H-pyrimidin-4-one]
4 nM	–	CC1Cc2c(F)cccc2N1C(=O)Cc1nc(N2CCOCC2)cc(=O)[nH]1 (single isomer, unassigned; (-)) [Example 27c, (−)-2-{2-[4-fluoro-2-methyl-2,3-dihydro-1H-indol-1-yl]-2-oxoethyl}-6-(morpholin-4-yl)pyrimidin-4(3H)-one]
–	120 nM	C[C@@H]1Cc2ccccc2N1C(=O)Cc1nc(N2CCOCC2)c(F)c(=O)n1C [Example 9a, 5-fluoro-3-methyl-2-{2-[(2R)-2-methyl-2,3-dihydro-1H-indol-1-yl]-2-oxoethyl}-6-(morpholin-4-yl)pyrimidin-4(3H)-one]
32 nM	–	CC1Cc2cc(F)c(F)cc2N1C(=O)Cc1nc(N2CCOCC2)cc(=O)n1C (stereo not drawn) [Example 23c, 2-{2-[(−)-5,6-difluoro-2-methyl-2,3-dihydro-1H-indol-1-yl]-2-oxoethyl}-3-methyl-6-(morpholin-4-yl)pyrimidin-4(3H)-one]
7 nM	–	CC1Cc2c(ccc(F)c2Cl)N1C(=O)Cc1nc(N2CCOCC2)cc(=O)[nH]1 (single isomer, unassigned; (+)) [Example 37c, (+)-2-{2-[4-chloro-5-fluoro-2-methyl-2,3-dihydro-1H-indol-1-yl]-2-oxoethyl}-6-(morpholin-4-yl)pyrimidin-4(3H)-one]
–	61 nM	C[C@@H]1Cc2ccccc2N1C(=O)Cc1nc(N2CCOCC2)c(F)c(=S)[nH]1 [Example 11e, 2-(5-fluoro-4-morpholin-4-yl-6-thioxo-1,6-dihydropyrimidin-2-yl)-1-((R)-2-methyl-2,3-dihydroindol-1-yl)ethanone]
–	41 nM	C[C@H]1Cc2ccccc2N1C(=O)Cc1nc(N2CCOCC2)cc(=S)n1C [Example 4e, 1-((S)-2-methyl-2,3-dihydroindol-1-yl)-2-(1-methyl-4-morpholin-4-yl-6-thioxo-1,6-dihydropyrimidin-2-yl)ethanone]
–	19 nM	CC1Cc2c(ccc(F)c2F)N1C(=O)Cc1nc(N2CCOCC2)cc(=O)n1C (single isomer, unassigned; (+)) [Example 19c, (+)-2-{2-[4,5-difluoro-2-methyl-2,3-dihydro-1H-indol-1-yl]-2-oxoethyl}-3-methyl-6-(morpholin-4-yl)pyrimidin-4(3H)-one]

— patent US9133168B2, “Pyrimidine derivatives, preparation thereof, and pharmaceutical use thereof as akt(pkb) phosphorylation inhibitors” (SANOFI, priority 2010, dated 2015)
